Assay results published in ChEMBL document CHEMBL5380799, “Comprehensive Peptide Cyclization Examination Yields Optimized APP Scaffolds with Improved Affinity toward Mint2” (J Med Chem, 2023).
One block for each compound: values may come before it. *1 amine or outer side, *2 acyl side, *3 side chain or, on linkers, in order; H or OH if unused. Where a SMILES comes first, the peptide text is derived from it. Bridges are numbered along the chain shown (N, C = ends). Triazole bridges read from a SMILES are 1,4-linked. [ ]: non-standard residue; d: D form. The star is where a group is joined. Perfluorobiphenyl(4,4') = Fc1c(F)c([*:1])c(F)c(F)c1-c1c(F)c(F)c([*:2])c(F)c1F; Pyridine(2,6-diCH2) = c1cc(C[*:1])nc(C[*:2])c1; Lys(N3) = [N-]=[N+]=NCCCC[C@H](N)C(=O)O; NH(CH2CH2O)2(CH2)6Cl = ClCCCCCCOCCOCCN*; Orn(N3) = [N-]=[N+]=NCCC[C@H](N)C(=O)O; pXylylene = c1cc(C[*:2])ccc1C[*:1]; S8 = C=CCCCCCC[C@](C)(N)C(=O)O; Suc = O=C(CCC(=O)[*:2])[*:1]; S5 = C=CCCC[C@](C)(N)C(=O)O; Hpra = C#CCC[C@H](N)C(=O)O; Pra = C#CC[C@H](N)C(=O)O

Legend:
[1] = Drug uptake in human HeLa cells assessed as drug penetration incubated for 4 hrs by CA-TAMRA based CAPA assay; assay type: ADME, cell-based
[2] = Binding affinity to N-terminal hexahistidine-tagged recombinant human Mint2-PARM (364 to 570 residues) by ITC method
[3] = tested on: Streptomyces griseus protease; test: Stability of compound in PBS at pH 7.4 assessed as Streptomyces griseus protease mediated degradation by measuring half life at 100 uM measured after 120 mins by RP UPLC analysis; assay type: ADME
[4] = biological target: proteinase K (Engyodontium album, UniProt P06873); test: Stability of compound in PBS at pH 7.4 assessed as Parengyodontium album proteinase K mediated degradation by measuring half life at 100 uM measured after 120 mins by RP UPLC analysis; assay type: ADME
[5] = Metabolic stability in human plasma assessed as half life at 500 uM incubated for 480 mins by RP UPLC analysis; assay type: ADME, cell-free
[6] = Binding affinity to N-terminal hexahistidine-tagged recombinant human Mint2-PARM (364 to 570 residues) in presence of probe [(TAMRA)-NNG-QNGYENPTYKFFEQMQN] by fluorescense polarization assay
[7] = tested on: trypsin; test: Stability of compound in PBS at pH 7.4 assessed as bovine pancreas trypsin mediated degradation by measuring half life at 100 uM measured after 120 mins by RP UPLC analysis; assay type: ADME, tissue-based, Bos taurus; details: cattle
[8] = organism: Homo sapiens; test: Binding affinity to N-terminal hexahistidine-tagged recombinant human Mint2-PARM (364 to 570 residues) assessed as change in entropy by ITC method
[9] = tested on: SH-SY5Y; test: Cytotoxicity against human SH-SY5Y cells assessed as reduction in cell viability at 100 uM incubated for 48 hrs by MTT assay; assay type: toxicity, cell-based

Sequence of proteinase K (P06873 whole entry): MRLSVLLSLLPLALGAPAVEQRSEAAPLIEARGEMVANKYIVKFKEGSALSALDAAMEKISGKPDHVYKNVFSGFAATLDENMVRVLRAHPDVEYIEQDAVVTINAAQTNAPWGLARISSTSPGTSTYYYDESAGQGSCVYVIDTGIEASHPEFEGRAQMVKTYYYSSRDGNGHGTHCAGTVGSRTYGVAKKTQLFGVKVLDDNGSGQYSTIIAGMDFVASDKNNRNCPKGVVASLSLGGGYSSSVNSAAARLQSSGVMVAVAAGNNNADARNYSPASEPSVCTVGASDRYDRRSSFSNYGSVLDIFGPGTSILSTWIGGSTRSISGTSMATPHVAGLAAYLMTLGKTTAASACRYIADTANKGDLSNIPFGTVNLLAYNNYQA

EC50 [1]: 14.5 µM
Kd [2]: 1.04 µM
half-life at 100 µM [3]: > 2 h
half-life at 100 µM [4]: > 2 h
half-life at 500 µM [5]: 1.5 h
Ki [6]: 0.3 µM
half-life at 100 µM [7]: > 2 h
Compound: NCCCC[C@@H]1NC(=O)[C@H](Cc2ccc(O)cc2)NC(=O)[C@@H](NC(=O)[C@@H]2CCCN2C(=O)[C@H](CC(N)=O)NC(=O)[C@H](CCC(=O)O)NC(=O)[C@H](Cc2ccc(O)cc2)NC(=O)CNC(=O)[C@@H](N)CC(N)=O)CCSCc2ccc(cc2)CSCC[C@@H](C(=O)N[C@@H](CCC(=O)O)C(=O)O)NC(=O)[C@H](Cc2ccccc2)NC1=O

Ki [6]: 214 µM
Compound: NCCCC[C@H]1NC(=O)[C@@H](Cc2ccc(O)cc2)NC(=O)[C@H](NC(=O)[C@@H]2CCCN2C(=O)[C@@H](CC(N)=O)NC(=O)[C@H](CCC(=O)O)NC(=O)[C@H](Cc2ccc(O)cc2)NC(=O)CNC(=O)[C@H](N)CC(N)=O)CC(=O)NCC[C@H](C(=O)N[C@H](CCC(=O)O)C(=O)O)NC(=O)[C@@H](Cc2ccccc2)NC1=O

EC50 [1]: 33.3 µM
Kd [2]: 0.24 µM
half-life at 100 µM [3]: > 2 h
half-life at 100 µM [4]: > 2 h
half-life at 500 µM [5]: 2.02 h
TdeltaS [8]: -1.44 kcal/mol
Ki [6]: 0.5 µM
half-life at 100 µM [7]: > 2 h
Compound: C[C@@]1(C(=O)N[C@@H](CCC(=O)O)C(=O)O)CCC/C=C\CCC[C@](C)(NC(=O)[C@@H]2CCCN2C(=O)[C@H](CC(N)=O)NC(=O)[C@H](CCC(=O)O)NC(=O)[C@@H](Cc2ccc(O)cc2)NC(=O)CNC(=O)[C@H](N)CC(N)=O)C(=O)N[C@@H](Cc2ccc(O)cc2)C(=O)N[C@@H](CCCCN)C(=O)N[C@@H](Cc2ccccc2)C(=O)N1

EC50 [1]: 77.9 µM
Compound: C[C@@]1(C(=O)N[C@H](CCC(=O)O)C(=O)O)CCC/C=C\CCC[C@](C)(NC(=O)[C@@H]2CCCN2C(=O)[C@H](CC(N)=O)NC(=O)[C@H](CCC(=O)O)NC(=O)[C@H](Cc2ccc(O)cc2)NC(=O)CNC(=O)[C@H](CC(N)=O)NC(=O)CCC(=O)NCCOCCOCCCCCCCl)C(=O)N[C@@H](Cc2ccc(O)cc2)C(=O)N[C@@H](CCCCN)C(=O)N[C@@H](Cc2ccccc2)C(=O)N1

EC50 [1]: 14.5 µM
Compound: NCCCC[C@@H]1NC(=O)[C@H](Cc2ccc(O)cc2)NC(=O)[C@@H](NC(=O)[C@@H]2CCCN2C(=O)[C@H](CC(N)=O)NC(=O)[C@H](CCC(=O)O)NC(=O)[C@H](Cc2ccc(O)cc2)NC(=O)CNC(=O)[C@H](CC(N)=O)NC(=O)CCC(=O)NCCOCCOCCCCCCCl)CCSCc2ccc(cc2)CSCC[C@@H](C(=O)N[C@H](CCC(=O)O)C(=O)O)NC(=O)[C@H](Cc2ccccc2)NC1=O

TdeltaS [8]: -2.03 kcal/mol
Compound: NCCCC[C@@H]1NC(=O)[C@H](Cc2ccc(O)cc2)NC(=O)[C@@H](NC(=O)[C@H]2CCCN2C(=O)[C@H](CC(N)=O)NC(=O)[C@@H](CCC(=O)O)NC(=O)[C@@H](Cc2ccc(O)cc2)NC(=O)CNC(=O)[C@@H](N)CC(N)=O)CCSCc2ccc(cc2)CSCC[C@@H](C(=O)N[C@@H](CCC(=O)O)C(=O)O)NC(=O)[C@H](Cc2ccccc2)NC1=O

Ki [6]: 21.4 µM
Compound: NCCCC[C@H](NC(=O)[C@H](Cc1ccc(O)cc1)NC(=O)[C@H](CS)NC(=O)[C@@H]1CCCN1C(=O)[C@H](CC(N)=O)NC(=O)[C@H](CCC(=O)O)NC(=O)[C@H](Cc1ccc(O)cc1)NC(=O)CNC(=O)[C@@H](N)CC(N)=O)C(=O)N[C@@H](Cc1ccccc1)C(=O)N[C@@H](CS)C(=O)N[C@@H](CCC(=O)O)C(=O)O (H-NGYENPCYKFCE-OH)

Ki [6]: 0.9 µM
Compound: NCCCC[C@@H]1NC(=O)[C@H](Cc2ccc(O)cc2)NC(=O)[C@@H](NC(=O)[C@@H]2CCCN2C(=O)[C@H](CC(N)=O)NC(=O)[C@H](CCC(=O)O)NC(=O)[C@H](Cc2ccc(O)cc2)NC(=O)CNC(=O)[C@@H](N)CC(N)=O)CSc2c(F)c(F)c(c(F)c2F)-c2c(F)c(F)c(c(F)c2F)SC[C@@H](C(=O)N[C@@H](CCC(=O)O)C(=O)O)NC(=O)[C@H](Cc2ccccc2)NC1=O (H-NGYENPCYKFCE-OH; linker 7-11 via Perfluorobiphenyl(4,4'))

Ki [6]: 6.5 µM
Compound: NCCCC[C@@H]1NC(=O)[C@H](Cc2ccc(O)cc2)NC(=O)[C@@H](NC(=O)[C@@H]2CCCN2C(=O)[C@H](CC(N)=O)NC(=O)[C@H](CCC(=O)O)NC(=O)[C@H](Cc2ccc(O)cc2)NC(=O)CNC(=O)[C@@H](N)CC(N)=O)CSCc2cccc(n2)CSC[C@@H](C(=O)N[C@@H](CCC(=O)O)C(=O)O)NC(=O)[C@H](Cc2ccccc2)NC1=O (H-NGYENPCYKFCE-OH; linker 7-11 via Pyridine(2,6-diCH2))

Ki [6]: 0.4 µM
Compound: NCCCC[C@@H]1NC(=O)[C@H](Cc2ccc(O)cc2)NC(=O)[C@@H](NC(=O)[C@@H]2CCCN2C(=O)[C@H](CC(N)=O)NC(=O)[C@H](CCC(=O)O)NC(=O)[C@H](Cc2ccc(O)cc2)NC(=O)CNC(=O)[C@@H](N)CC(N)=O)CSCc2ccc(cc2)CSC[C@@H](C(=O)N[C@@H](CCC(=O)O)C(=O)O)NC(=O)[C@H](Cc2ccccc2)NC1=O (H-NGYENPCYKFCE-OH; linker 7-11 via pXylylene)

EC50 [1]: 77.9 µM
Kd [2]: 5.77 µM
half-life at 100 µM [3]: 0.45 h
half-life at 100 µM [4]: > 2 h
half-life at 500 µM [5]: 1.18 h
Ki [6]: 1 µM
half-life at 100 µM [7]: > 2 h
Compound: NCCCC[C@@H]1NC(=O)[C@H](Cc2ccc(O)cc2)NC(=O)[C@@H](NC(=O)[C@@H]2CCCN2C(=O)[C@H](CC(N)=O)NC(=O)[C@H](CCC(=O)O)NC(=O)[C@H](Cc2ccc(O)cc2)NC(=O)CNC(=O)[C@@H](N)CC(N)=O)CCCCNC(=O)C[C@@H](C(=O)N[C@@H](CCC(=O)O)C(=O)O)NC(=O)[C@H](Cc2ccccc2)NC1=O (H-NGYENPKYKFDE-OH; lactam 7-11)

EC50 [1]: 42.9 µM
Kd [2]: 1 µM
half-life at 100 µM [3]: 0.333 h
half-life at 100 µM [4]: 0.467 h
half-life at 500 µM [5]: 0.675 h
Ki [6]: 1.2 µM
half-life at 100 µM [7]: > 2 h
Compound: NCCCC[C@@H]1NC(=O)[C@H](Cc2ccc(O)cc2)NC(=O)[C@@H](NC(=O)[C@@H]2CCCN2C(=O)[C@H](CC(N)=O)NC(=O)[C@H](CCC(=O)O)NC(=O)[C@H](Cc2ccc(O)cc2)NC(=O)CNC(=O)[C@@H](N)CC(N)=O)CCCCn2cc(nn2)C[C@@H](C(=O)N[C@@H](CCC(=O)O)C(=O)O)NC(=O)[C@H](Cc2ccccc2)NC1=O (H-NGYENP[Lys(N3)]YKF[Pra]E-OH; triazole 7-11)

Ki [6]: 64.6 µM
Compound: NCCCC[C@@H]1NC(=O)[C@H](Cc2ccc(O)cc2)NC(=O)[C@@H](NC(=O)[C@@H]2CCCN2C(=O)[C@H](CC(N)=O)NC(=O)[C@H](CCC(=O)O)NC(=O)[C@H](Cc2ccc(O)cc2)NC(=O)CNC(=O)[C@@H](N)CC(N)=O)CCCn2cc(nn2)CC[C@@H](C(=O)N[C@@H](CCC(=O)O)C(=O)O)NC(=O)[C@H](Cc2ccccc2)NC1=O (H-NGYENP[Orn(N3)]YKF[Hpra]E-OH; triazole 7-11)

Ki [6]: 0.8 µM
Compound: C[C@@]1(C(=O)N[C@@H](CCC(=O)O)C(=O)O)CCCCCC/C=C/CCC[C@](C)(NC(=O)[C@@H]2CCCN2C(=O)[C@H](CC(N)=O)NC(=O)[C@H](CCC(=O)O)NC(=O)[C@H](Cc2ccc(O)cc2)NC(=O)CNC(=O)[C@@H](N)CC(N)=O)C(=O)N[C@@H](Cc2ccc(O)cc2)C(=O)N[C@@H](CCCCN)C(=O)N[C@@H](Cc2ccccc2)C(=O)N1 (H-NGYENP[S5]YKF[S8]E-OH; staple (E) 7-11)

Ki [6]: 2.3 µM
Compound: C[C@@]1(C(=O)N[C@@H](CCC(=O)O)C(=O)O)CCC/C=C\CCCCCC[C@](C)(NC(=O)[C@@H]2CCCN2C(=O)[C@H](CC(N)=O)NC(=O)[C@H](CCC(=O)O)NC(=O)[C@H](Cc2ccc(O)cc2)NC(=O)CNC(=O)[C@@H](N)CC(N)=O)C(=O)N[C@@H](Cc2ccc(O)cc2)C(=O)N[C@@H](CCCCN)C(=O)N[C@@H](Cc2ccccc2)C(=O)N1 (H-NGYENP[S8]YKF[S5]E-OH; staple (Z) 7-11)

EC50 [1]: 42 µM
Compound: C[C@@H](O)[C@H](NC(=O)[C@@H]1CCCN1C(=O)[C@H](CC(N)=O)NC(=O)[C@H](CCC(=O)O)NC(=O)[C@H](Cc1ccc(O)cc1)NC(=O)CNC(=O)[C@H](CC(N)=O)NC(=O)CCC(=O)NCCOCCOCCCCCCCl)C(=O)N[C@@H](Cc1ccc(O)cc1)C(=O)N[C@@H](CCCCN)C(=O)N[C@@H](Cc1ccccc1)C(=O)N[C@@H](Cc1ccccc1)C(=O)N[C@@H](CCC(=O)O)C(=O)O ({NH(CH2CH2O)2(CH2)6Cl-Suc}-NGYENPTYKFFE-OH)

Ki [6]: 4 µM
half-life at 100 µM [7]: 0.43 h
Compound: H-NGYENPTYKFFE-OH
Activity [9]: 20%
